Laboratory results: the supplement of paper PMC8671470

Tests used:
Assay in all cases: cell viability (% survival relative to DMSO control, bortezomib = 0%); higher = less cytotoxic
Conditions in all cases: 72 h
[1] = tested on: KG-1
In short: (§1)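 Reported values are percent survival from duplicate wells, averaged. Fifteen myeloid leukaemia cell lines were treated in 384-well plates with compounds at 1, 10, 100, 1000 or 10000 nM for 72 h at 37 °C in 5% CO2. Signals from CellTiter-Glo luminescence were scaled with vehicle as 100% and a 10 µM positive control as 0%.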

[2] = tested on: HEL
In short: as §1

[3] = tested on: MV4-11
In short: as §1

[4] = tested on: ML-2
In short: as §1

Compound	cell viability ([1]; 1 nM) [%]	cell viability ([1]; 10 nM) [%]	cell viability ([1]; 100 nM) [%]	cell viability ([1]; 1000 nM) [%]	cell viability ([1]; 10000 nM) [%]	cell viability ([2]; 1 nM) [%]	cell viability ([2]; 10 nM) [%]	cell viability ([2]; 100 nM) [%]	cell viability ([2]; 1000 nM) [%]	cell viability ([2]; 10000 nM) [%]	cell viability ([3]; 1 nM) [%]	cell viability ([3]; 10 nM) [%]	cell viability ([3]; 100 nM) [%]	cell viability ([3]; 1000 nM) [%]	cell viability ([3]; 10000 nM) [%]	cell viability ([4]; 1 nM) [%]	cell viability ([4]; 10 nM) [%]	cell viability ([4]; 100 nM) [%]	cell viability ([4]; 1000 nM) [%]	cell viability ([4]; 10000 nM) [%]
Clc1ccc2c(c1Cl)CNCC2	94.3	98.7	98.7	101	71.9	100	111	90.9	107	82.4	99.7	114	96.3	114	91.6	91.5	118	90	102	87.9
O=C(O)C(S)=Cc1c[nH]c2ccc(F)cc12	101	95.1	106	101	66.3	102	103	95.4	94	101	96.2	97.6	81.7	103	83.6	101	98.6	113	111	91.5
CC(C)Cc1sc(N)nc1-c1ccc(P(=O)(O)O)o1	110	90.8	102	98.8	108	95.3	93.1	118	109	85.5	102	101	113	101	87.3	98.1	108	105	103	92.7
Cl.OC[C@H]1NC[C@@H](O)[C@@H](O)[C@@H]1O [1-Deoxymannojirimycin hydrochloride]	105	92.3	90.6	112	94.1	102	83.2	112	119	86.1	102	92.2	99.3	105	80.8	101	90.6	100	110	87.6
CN(C)c1nc(O)c2[nH]cnc2n1 [2-Dimethylamino-6-hydroxypurine]	106	94.3	92.7	96.7	85.8	105	85.3	114	106	84.8	101	98.8	97.2	102	89.8	97.7	89.6	95.3	107	94.5
O=C(O)c1cc2sccc2[nH]1 [4H-thieno[3,2-b]pyrrole-5-carboxylic acid]	105	106	92.7	91.8	95.2	120	106	97.5	93.5	108	107	93	93.2	92.9	96.8	105	96.6	84.2	99.1	113
[N-]=[N+]=CC(=O)CC[C@H](N)C(=O)O [6-Diazo-5-oxo-L-norleucine]	110	95.2	101	117	98.9	98.6	109	98.5	95.1	96.6	78.2	106	108	97.1	105	95.1	95.3	98.3	116	110
Sc1ncnc2nc[nH]c12 [6-mercaptopurine]	112	103	93.4	97.9	89.4	96.5	98.2	95.6	70.6	7.42	87	85.5	80.1	27.3	24.7	111	91.3	87.9	56.1	13.5
O=C(O)CC[C@H](NC(=O)c1ccc([N+](=O)[O-])cc1)C(=O)O [(S)-2-(4-Nitrobenzamido)pentanedioic acid]	95.5	93.2	97.4	98.6	99.9	89.9	107	94	96.3	90.4	89.6	103	80	96.6	85.9	103	91.2	101	93.7	95.4
O=C1Nc2ccccc2/C1=C\NCCc1ccc(O)c(O)c1 [AC1NZZMF]	112	106	104	95.7	78.7	101	99.5	104	112	96.9	113	89.4	93.8	84.9	75.7	113	111	101	95.4	75.9
Cc1ccc(S(=O)(=O)NC2c3ccccc3Oc3ccccc32)cc1 [AH-7614]	100	95.9	102	95.4	104	107	96.9	103	107	98.9	94	94.1	100	94.7	93.3	97.3	99.2	104	104	114
C[C@]12CC[C@H](O)CC1=CC[C@@H]1[C@@H]2CC[C@]2(C)C(c3cccnc3)=CC[C@@H]12 [Abiraterone]	115	101	94.3	101	91.8	113	109	110	112	111	96.4	96.5	107	114	99	116	97.2	101	118	110
O=C(COc1ccc(C(=O)c2ccccc2)cc1)NC1CCN(Cc2ccccc2)CC1 [AdipoRon]	93.9	107	104	91.9	59.6	94.5	96.6	96.6	97.5	85.4	86.7	92	94.2	91.9	48.6	84	107	94.5	97.6	65.9
